According to publication PMC8898184 (Drug Design, Development and Therapy, 2022):

Biological target: T1, Bovine β-lactoglobulin (BLG) (Bos taurus, UniProt P02754)
T1 sequence (P02754 17-178): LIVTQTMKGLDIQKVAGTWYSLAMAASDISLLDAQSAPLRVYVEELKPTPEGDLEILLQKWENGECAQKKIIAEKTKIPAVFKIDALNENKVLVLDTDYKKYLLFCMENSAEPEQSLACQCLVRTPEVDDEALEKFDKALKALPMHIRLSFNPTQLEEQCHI
Experiment: tryptophan fluorescence quenching
Assay type: binding
Conditions: PBS, pH 7.4, 37 °C; 5 μM BLG; double-log

Kb (×10^3 M^-1): 2.051 × 10^3 M^-1
SMILES: CC(=O)Oc1ccccc1C(=O)O [aspirin]
